Laboratory results from publication PMC5458211, “Mitochondrial VDAC1-based peptides: Attacking oncogenic properties in glioblastoma” (Oncotarget, 2017).
Non-standard residues stand in square brackets, D forms with d. Residues, ends and D or L forms follow the SMILES beside them.

Key:
[1] = tested on: metabolic enzymes and transporters; assay: Expression of energy- and metabolism-related proteins in treated tumors (IHC, immunoblot); type: in vivo, human U-87MG in nude mice; conditions: for VDAC1 staining: treated tumors vs strong staining in PBS/DMSO
Text: Figure 5 VDAC1-based peptide-treated tumors show marked changes in the expression of energy- and metabolism-related enzymes Dissected tumors were subjected to immunohistochemistry as described in Experimental Procedures. A, B. Representative sections from PBS/DMSO- and Tf-D-LP4-TTs were IHC stained for Glut-1, HK-I, HK-II, GAPDH, LDH, VDAC1, CS, Complex IVc and ATP synthase 5a are presented. Sections were also hematoxylin-stained and visualized by microscopy. C. Tissue lysates obtained from controls and several Tf-D-LP4-TTs were immunoblotted for HK-I, HK-II, VDAC1, GAPDH, LDH, CS, and ATP synthase 5a. D. Quantitative analysis of immunoblots is shown (n=2-4).
Formalin-fixed, paraffin-embedded sections of control and peptide-TTs were hematoxylin-eosin stained, probed with appropriate antibodies via IHC staining or immunoblotting of cells and tissue extracts. […]
10 ml of aqueous solution containing 1% PVA (w/v). The software. These experimental protocols were approved by mixtures were stirred continuously at room temperature the Institutional Animal Care and Use Committee of Ben-until complete evaporation of the organic solvent. The Gurion University. […]
HBSS solution. Cells or tumor tissue were lysed using lysis buffer (50 mM Tris-HCl, pH 7.5, 150 mM NaCl, 1
Xenograft and intracranial-orthotopic mouse mM EDTA, 1.5 mM MgCl2, 10% glycerol, 1% Triton models X-100, supplemented with a protease inhibitor cocktail
(Calbiochem, UK). Cell lysates were then centrifuged at U-87MG glioblastoma cells (3 x106) were inoculated 600xg (10 min at 4°C) and samples (10-40 μg of protein) s.c. into the hind leg ﬂanks of athymic eight-week old were subjected to SDS-PAGE and immunoblotting male nude mice (Envigo). Thirteen days post-inoculation, using various primary antibodies (sources and dilutions tumor volume was measured and calculated (100-130 as detailed in supplementary Table 2), followed by mm3) and mice were randomized into three groups (5 the appropriate HRP-conjugated secondary antibodies mice/group). Each treatment substance was injected into (i.e., anti-mouse, anti-rabbit or anti-goat). Blots the established s,c. tumors using PBS containing 0.26% were developed using enhanced chemiluminescence DMSO or peptide in PBS, 0.26% DMSO/20 μM). The (Biological Industries). Band intensities were analyzed xenografts were injected 20 µl per tumor (2 points) every by densitometry using Multi Gauge software (Fujifilm) two days. Beginning on the day of inoculation, mouse and the values were normalized to the intensities of the weight and tumor volume were monitored twice a week appropriate β-actin signal that served as a loading control. for a period of 23 days using a digital caliper. At the end of the experiments, the mice were sacrificed, tumors were IHC of tumor tissue sections excised and ex vivo weight was determined. Half of each tumor was either fixed in 4% buffered formaldehyde, IHC staining was performed on 5 μm-thick paraffin-embedded and processed for IHC or frozen in formalin-fixed and paraffin-embedded tumor tissue liquid nitrogen for later immunoblot analysis. sections. The sections were deparaffinized by placing To generate an intracranial-orthotopic mouse model, the slides at 60°C for 1 h and using xylene. […]
(Stoelting, Wood Dale, IL). A middle incision was made c, cytochrome c oxidase subunit IVc, GAPDH, Glut1, on the skull and a burr hole was introduced 0.5 mm HK-II, Klf4, LDH, Nestin, NGFR, P53, SMAC/Diablo, anterior to the bregma and 2.5 mm lateral to the midline Sox2, S100b, VDAC1) was performed in 0.01 M citrate using a drill (Stoelting). A 31-gauge needle loaded with buffer (pH 6.0). For CD31, HK-I and Ki-67, antigen 10 µL PBS was used to deliver tumor cells. The needle retrieval was performed in 10 mM Tris-EDTA (pH 9) and tip was inserted into the brain 3 mm deep, relative to the 0.5 M Tris (pH 10), for 30 minutes each at 95-98°C. After […]

[2] = tested on: cancer cells; conditions: ref [23]; cited from earlier work
Text: D-ΔN-Ter-Antp is composed of Antp (Penetrating), a 16 residue-long sequence from the Drosophila antennapedia-homeodomain, fused to a VDAC1-N-terminal sequence, both containing amino ...

[3] = tested on: G7 stem cells; assay: Apoptosis by FITC-Annexin V/PI staining and flow cytometry, G7; type: cell-based, GBM patient; conditions: 3 h at 37°C, Fig 6G-H
Description: (§1) Sections were also hematoxylin-stained and visualized by microscopy. B. Tissue lysates obtained from controls and several TF-D-LP4-TTs were immunoblotted for Nestin, Sox2, NGFR, CD133, and Klf4. C. Quantitative analysis of immunoblots is shown (n=2-4). D. Immunoblot analysis of, Klf4, Sox2, Nestin and Musashi expression in U-87MG and G7 cell lines, using specific antibodies. E. Quantitative analysis of immunoblots. […] G. G7 (·) and U-87MG cells (○) (2×10^5) were incubated for 3 h with the DMSO (0.15%) or with the indicated concentration of Retro-Tf-D-LP4 peptide in serum-free growth medium at 37°C and then subjected to FITC-Annexin V/PI staining and flow cytometry analysis. H. Representative FACS analysis of DMSO- (left) and 5 μM of Retro-Tf-D-LP4- (right) treated G7 or U-87MG cells.
(§2) Cells (6×10^5 /ml) were incubated in 500 μl serum-free medium with the peptide of interest for 6 h at 37°C in the presence of 5% CO2. The cells were then trypsinized, centrifuged (1500xg, 5 min), washed with PBS and analyzed for cell death using propidium iodide (PI) staining and flow cytometer (Beckton-Dickinson, San Jose, CA) and BD CellQuest Pro software. Apoptotic cell death was also analyzed by PI and annexin V-FITC staining, and by acridine orange and ethidium bromide staining and light microscopy (Olympus LX2-KSP).

[4] = tested on: U-87MG cells; assay: Apoptosis by FITC-Annexin V/PI staining and flow cytometry, U-87MG; type: cell-based, human; conditions: 3 h at 37°C, Fig 6G-H
Description: as §1, §2

Structure (SMILES): CC[C@@H](C)[C@@H](NC(=O)[C@@H](CCCCN)NC(=O)[C@H](NC(=O)[C@@H](CCC(N)=O)NC(=O)[C@@H](CCCNC(=N)N)NC(=O)[C@@H](CC(C)C)NC(=O)CNC(=O)[C@@H](Cc1ccccc1)NC(=O)CNC(=O)[C@@H](Cc1ccc(O)cc1)NC(=O)CNC(=O)[C@@H](CCCCN)NC(=O)[C@H](NC(=O)[C@@H](Cc1ccccc1)NC(=O)[C@H](NC(=O)[C@@H](CC(=O)O)NC(=O)[C@H](N)CCCNC(=N)N)C(C)C)[C@H](C)O)[C@H](C)CC)C(=O)N[C@H](Cc1c[nH]c2ccccc12)C(=O)N[C@H](Cc1ccccc1)C(=O)N[C@H](CCC(N)=O)C(=O)N[C@H](CC(N)=O)C(=O)N[C@H](CCCNC(=N)N)C(=O)N[C@H](CCCNC(=N)N)C(=O)N[C@H](CCSC)C(=O)N[C@H](CCCCN)C(=O)N[C@H](Cc1c[nH]c2ccccc12)C(=O)N[C@H](CCCCN)C(=O)N[C@H](CCCCN)C(=O)O [D-ΔN-Ter-Antp] (H-[dR][dD][dV][dF][dT][dK]G[dY]G[dF]G[dL][dR][dQ][dI][dK][dI][dW][dF][dQ][dN][dR][dR][dM][dK][dW][dK][dK]-OH; N-terminus and C-terminus assumed)
- VDAC1 staining [1]: only very weak staining
- cell death induction, selection among over 40 versions [2]: most active in cell death induction

Structure (SMILES): CC[C@H](C)[C@H](NC(=O)[C@H](Cc1ccc(O)cc1)NC(=O)[C@@H]1CCCN1C(=O)[C@H](CCCNC(=N)N)NC(=O)[C@H](Cc1c[nH]cn1)NC(=O)[C@H](CO)NC(=O)[C@H](Cc1c[nH]c2ccccc12)NC(=O)[C@@H](NC(=O)[C@H](Cc1c[nH]c2ccccc12)NC(=O)[C@H](CCC(=O)O)NC(=O)[C@@H](CCCCN)NC(=O)[C@@H](CCCCN)NC(=O)[C@@H](CC(C)C)NC(=O)[C@@H](CCC(=O)O)NC(=O)[C@H](NC(=O)[C@@H](C)NC(=O)[C@H](NC(=O)[C@@H](CC(N)=O)NC(=O)[C@@H](CC(C)C)NC(=O)[C@@H](C)NC(=O)[C@@H](Cc1c[nH]c2ccccc12)NC(=O)[C@H](NC(=O)[C@@H](C)NC(=O)CNC(=O)[C@@H](CC(N)=O)NC(=O)[C@@H](CO)NC(=O)[C@@H](CC(N)=O)NC(=O)[C@H](CCCCN)NC(=O)[C@H](Cc1c[nH]c2ccccc12)NC(=O)[C@@H](NC(=O)[C@H](Cc1c[nH]c2ccccc12)NC(=O)[C@@H](N)CCCCN)[C@@H](C)O)[C@H](C)O)C(C)C)[C@H](C)O)[C@@H](C)O)C(=O)N[C@@H](C)C(=O)N[C@@H](Cc1c[nH]cn1)C(=O)O [Retro-Tf-D-LP4]
- apoptosis of G7 stem cells [3]: induces apoptosis
- apoptosis of U-87MG cells [4]: induces apoptosis

Structure (SMILES): CC[C@H](C)[C@H](NC(=O)[C@H](C)NC(=O)[C@@H](N)Cc1c[nH]cn1)C(=O)N[C@@H](Cc1ccc(O)cc1)C(=O)N1CCC[C@H]1C(=O)N[C@@H](CCCNC(=N)N)C(=O)N[C@@H](Cc1c[nH]cn1)C(=O)N[C@@H](CO)C(=O)N[C@@H](Cc1c[nH]c2ccccc12)C(=O)N[C@H](C(=O)N[C@@H](Cc1c[nH]c2ccccc12)C(=O)N[C@@H](CCC(=O)O)C(=O)N[C@H](CCCCN)C(=O)N[C@H](CCCCN)C(=O)N[C@H](CC(C)C)C(=O)N[C@H](CCC(=O)O)C(=O)N[C@@H](C(=O)N[C@H](C)C(=O)N[C@@H](C(=O)N[C@H](CC(N)=O)C(=O)N[C@H](CC(C)C)C(=O)N[C@H](C)C(=O)N[C@H](Cc1c[nH]c2ccccc12)C(=O)N[C@@H](C(=O)N[C@H](C)C(=O)NCC(=O)N[C@H](CC(N)=O)C(=O)N[C@H](CO)C(=O)N[C@H](CC(N)=O)C(=O)N[C@@H](CCCCN)C(=O)N[C@@H](Cc1c[nH]c2ccccc12)C(=O)N[C@H](C(=O)N[C@@H](Cc1c[nH]c2ccccc12)C(=O)N[C@@H](CCCCN)C(=O)O)[C@@H](C)O)[C@H](C)O)C(C)C)[C@H](C)O)[C@@H](C)O [Tf-D-LP4]
- ATP synthase subunit 5a expression ([1]; treated tumors vs PBS/DMSO): markedly lower
- GAPDH level ([1]; treated tumors vs PBS/DMSO): dramatically lower
- Glut-1 level ([1]; treated tumors vs PBS/DMSO): dramatically lower
- HK-I level ([1]; treated tumors vs PBS/DMSO): dramatically lower
- HK-II level ([1]; treated tumors vs PBS/DMSO): dramatically lower
- LDH level ([1]; treated tumors vs PBS/DMSO): dramatically lower
- citrate synthase (CS) expression ([1]; treated tumors vs PBS/DMSO): markedly lower
- complex IVc expression ([1]; treated tumors vs PBS/DMSO): markedly lower
- VDAC1 staining [1]: only very weak staining
